Experimental data: patent US10829446B2, “Aryl sulfonohydrazides” (MONASH UNIVERSITY, priority 2015, dated 2020)

Legend:
Type in all cases: cell-based
[1] = system: Wild type pre B cells; assay: Bioassay 8: cell cycle analysis (DNA content and Ki67); conditions: for cells in G0 / cells in G1 / cells in G2/M / cells in S: 1 μM
Description: Pre B cells are isolated from bone marrow according to the criterion: cell surface expression of B220, CD19, but not cKit or IgM. Pre-B cells are cultured on OP9 cells with IL7 in the presence of compounds at various concentrations. The stages of the cell cycle in cultured pre-B cells with and without treatment is analysed by flow cytometry using a stain for DNA content combined with the cell cycle marker Ki67 to enumerate the proportion of cells in different phases of the cell cycle.

[2] = system: Eμ-Myc pre-leukemia pro-B cells; assay: Bioassay 5: pro-B cell colony formation in methylcellulose, Eμ-Myc
Description: Pro-B cells are purified by positive selection using antiCD19-magnetic beads and fluorescence activated cell sorting using the criterion: cell surface expression of B220, CD19 and cKit but not IgM. After purification, 25,000 pro-B cells are seeded onto 3.5 cm culture dishes plate containing methylcellulose (MethoCult M3630, STEM CELL technologies) for 7 days. After 7 days culture, colonies in which there were more than 50 cells are counted. Subsequently, 190,000 pro-B cells are replated into methylcellulose for another 7 days of culture, followed by enumeration.

[3] = system: Wild type pre B cells; assay: Bioassay 7: pre-B cell number dose response, wild type; conditions: B-cell, 96 h; wild type Pre B cells; 4 days
Description: Pre B cells are isolated from bone marrow according to the criterion: cell surface expression of B220, CD19, but not cKit or IgM. Pre-B cells are cultured on OP9 cells with IL7 in the presence of compounds at concentrations from 0.01 μM to 20 μM in vitro for 4 days. Cell number is then enumerated and an IC50 is calculated.

Cc1cc(-c2ccccc2)cc(C(=O)NNS(=O)(=O)c2ccccc2)c1F [Compound 36]
cells in G0 ([1]; cultured for 4 days): 14.5% | cells in G1 ([1]; cultured for 4 days): 55.9% | cells in G2/M ([1]; cultured for 4 days): 12.7% | cells in S ([1]; cultured for 4 days): 15.6% | cells in G0 ([1]; cultured for 6 days): 11.0% | cells in G1 ([1]; cultured for 6 days): 66.6% | cells in G2/M ([1]; cultured for 6 days): 9.0% | cells in S ([1]; cultured for 6 days): 8.3% | number of cells in S phase down-regulated ([1]; wild type pre-B cells): 40% | colony number ([2]; 1 μM, Eμ-Myc pre-leukemia pro-B cells, primary colonies): 104.625 | colony number, secondary colony formation ([2]; 1 μM, Eμ-Myc pre-leukemia pro-B cells, secondary colony formation): 9.75 | proliferation and secondary colony formation of cells expressing the oncogene cMyc ([2]; in words): equally effective in inhibiting proliferation and secondary colony formation | IC50 [3]: 364 nM
